Laboratory results taken from PMC7029851, “Antibacterial activity of novel dual bacterial DNA type II topoisomerase inhibitors” (PLoS ONE, 2020).
Where “and” joins values, the source holds several entries; their conditions need not be identical. Equal values may be shown once. Where a name gives a salt, the structure may show the parent alone. Read-outs that look alike come from different tables or passages of the source.

Legend:
[1] = tested on: N. gonorrhoeae clinical isolates (n = 38); assay: microbe, parasite or virus in culture; format: cell-based, Neisseria gonorrhoeae
Protocol: (§1) The bacterial reference strains used in this study were purchased from ATCC (American Type Culture Collection) via LGC Standards (Middlesex, UK). […] Clinical MDR isolates were provided by Aptuit, the IHMA Europa Sàrl repository (Epalinges, Switzerland) and the Statens Serum Institute (Copenhagen, Denmark).
(§2) MICs were determined by the broth microdilution method (the agar dilution method was used only for N. gonorrhoeae) according to CLSI guidelines.
(§3) The results obtained using clinical isolates are reported as MIC50 and MIC90 values.

[2] = molecular target: T1, S. aureus Topoisomerase IV (Staphylococcus aureus, UniProt P0C1U9); assay: S. aureus topoisomerase IV decatenation gel assay; format: biochemical
T1 construct: purchased Inspiralis (Norwich, UK)
Protocol: (§4) S. aureus and E. coli DNA gyrase supercoiling and topo IV decatenation assay kits, as well as human topoisomerase II decatenation assay kits, were provided by Inspiralis (Norwich, UK). Assays were performed according to the manufacturer’s instructions. The compounds were serially diluted (1:3 dilutions starting from a 300 μM final concentration) and assayed in a reaction mixture to obtain concentration-response curves in two different replicate experiments. The final concentration of DMSO in the assays was 1% (v/v). The reactions were terminated by the addition of 30 μl chloroform/isoamyl alcohol (26:1) and 30 μl Stop Dye (40% sucrose, 100 mM Tris HCl pH 7.5, 1 mM EDTA, 0.5 μg/ml bromophenol blue), after which the samples were loaded onto a 1.0% TAE ([…]) gel that was then run at 80 V for 2 hours. DNA bands were visualized by ethidium bromide staining the gel for 10 minutes, which was then destained for 10 minutes in water and analysed using gel documentation equipment (Syngene, Cambridge, UK). The DNA in each band was quantitated using Syngene Gene Tools software. Raw gel data (fluorescent band volumes) were converted by the software to percentages of the control (the fully supercoiled or decatenated DNA band). […] The global curve fit non-linear regression tool was used to calculate the IC50 values. The results are expressed as the average values obtained after calculating the IC50 from each replicate run.

E. coli TolC- mutant = assay: microbe, parasite or virus in culture; format: cell-based; settings: Escherichia coli
Protocol: as §1, §2

E. coli DNA gyrase = molecular target: T2, E. coli DNA gyrase (Escherichia coli, UniProt P0AES4); assay: E. coli DNA gyrase supercoiling gel assay; format: biochemical
T2 construct: purchased Inspiralis (Norwich, UK)
T2 sequence (P0AES4 whole entry): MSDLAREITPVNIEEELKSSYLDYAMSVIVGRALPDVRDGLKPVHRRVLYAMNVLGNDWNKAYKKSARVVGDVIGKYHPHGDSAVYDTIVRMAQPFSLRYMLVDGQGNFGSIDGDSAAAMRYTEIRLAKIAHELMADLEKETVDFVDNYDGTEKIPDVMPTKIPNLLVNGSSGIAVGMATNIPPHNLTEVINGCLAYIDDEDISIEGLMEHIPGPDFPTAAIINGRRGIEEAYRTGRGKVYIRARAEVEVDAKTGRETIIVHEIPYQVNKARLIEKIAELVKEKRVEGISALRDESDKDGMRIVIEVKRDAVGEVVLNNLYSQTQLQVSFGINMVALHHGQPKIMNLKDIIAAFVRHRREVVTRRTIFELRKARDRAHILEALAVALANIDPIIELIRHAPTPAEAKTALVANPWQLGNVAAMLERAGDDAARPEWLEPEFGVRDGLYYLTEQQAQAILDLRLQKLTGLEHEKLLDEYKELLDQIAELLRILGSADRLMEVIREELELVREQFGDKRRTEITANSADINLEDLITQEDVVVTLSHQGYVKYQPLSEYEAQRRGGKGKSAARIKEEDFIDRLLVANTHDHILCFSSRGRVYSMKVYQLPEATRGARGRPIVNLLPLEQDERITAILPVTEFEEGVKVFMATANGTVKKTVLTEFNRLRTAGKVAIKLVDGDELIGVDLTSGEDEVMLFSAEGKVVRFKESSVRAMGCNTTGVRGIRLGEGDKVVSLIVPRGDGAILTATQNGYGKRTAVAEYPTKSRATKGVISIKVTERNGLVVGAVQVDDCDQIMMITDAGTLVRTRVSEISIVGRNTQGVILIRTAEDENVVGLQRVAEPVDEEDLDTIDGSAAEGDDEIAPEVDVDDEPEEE
Protocol: as §4

N. gonorrhoeae WHO N = assay: MIC, agar dilution; format: cell-based; settings: Neisseria gonorrhoeae, ciprofloxacin-resistant
Protocol: as §2

[3] = tested on: N. gonorrhoeae ATCC 19424; assay: MIC, agar dilution; format: cell-based; settings: Neisseria gonorrhoeae, ATCC19424; N. gonorrhoeae ATCC 19424, ciprofloxacin-susceptible
Protocol: as §2

N. gonorrhoeae WHO K = assay: MIC, agar dilution; format: cell-based; settings: Neisseria gonorrhoeae, ciprofloxacin-resistant
Protocol: as §2

[4] = tested on: N. gonorrhoeae ATCC 49226; assay: MIC, agar dilution; format: cell-based; settings: Neisseria gonorrhoeae, ATCC49226; N. gonorrhoeae ATCC 49226, ciprofloxacin-susceptible
Protocol: as §2

N. gonorrhoeae WHO L = assay: MIC, agar dilution; format: cell-based; settings: Neisseria gonorrhoeae, ciprofloxacin-resistant
Protocol: as §2

E. coli Topoisomerase IV = molecular target: T3, E. coli Topoisomerase IV (Escherichia coli, UniProt P0AFI2); assay: E. coli topoisomerase IV decatenation gel assay; format: biochemical
T3 construct: purchased Inspiralis (Norwich, UK)
T3 sequence (P20083 whole entry): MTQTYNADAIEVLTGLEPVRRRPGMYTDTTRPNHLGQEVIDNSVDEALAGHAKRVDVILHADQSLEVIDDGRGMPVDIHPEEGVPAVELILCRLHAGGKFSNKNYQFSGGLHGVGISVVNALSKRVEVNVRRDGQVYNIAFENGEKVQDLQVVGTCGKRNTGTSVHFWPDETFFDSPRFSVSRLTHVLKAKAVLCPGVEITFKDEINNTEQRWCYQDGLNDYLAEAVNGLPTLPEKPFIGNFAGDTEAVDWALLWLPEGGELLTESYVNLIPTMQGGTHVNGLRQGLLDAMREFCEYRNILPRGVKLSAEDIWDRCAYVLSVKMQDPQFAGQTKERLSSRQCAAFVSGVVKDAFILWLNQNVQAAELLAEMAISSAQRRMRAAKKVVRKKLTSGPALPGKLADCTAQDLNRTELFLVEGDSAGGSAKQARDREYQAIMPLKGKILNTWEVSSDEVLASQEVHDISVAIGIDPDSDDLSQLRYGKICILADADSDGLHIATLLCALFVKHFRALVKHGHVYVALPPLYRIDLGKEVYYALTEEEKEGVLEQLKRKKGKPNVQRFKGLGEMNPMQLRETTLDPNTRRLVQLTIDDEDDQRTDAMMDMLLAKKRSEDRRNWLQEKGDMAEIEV
T3 sequence (P0AFI2 whole entry): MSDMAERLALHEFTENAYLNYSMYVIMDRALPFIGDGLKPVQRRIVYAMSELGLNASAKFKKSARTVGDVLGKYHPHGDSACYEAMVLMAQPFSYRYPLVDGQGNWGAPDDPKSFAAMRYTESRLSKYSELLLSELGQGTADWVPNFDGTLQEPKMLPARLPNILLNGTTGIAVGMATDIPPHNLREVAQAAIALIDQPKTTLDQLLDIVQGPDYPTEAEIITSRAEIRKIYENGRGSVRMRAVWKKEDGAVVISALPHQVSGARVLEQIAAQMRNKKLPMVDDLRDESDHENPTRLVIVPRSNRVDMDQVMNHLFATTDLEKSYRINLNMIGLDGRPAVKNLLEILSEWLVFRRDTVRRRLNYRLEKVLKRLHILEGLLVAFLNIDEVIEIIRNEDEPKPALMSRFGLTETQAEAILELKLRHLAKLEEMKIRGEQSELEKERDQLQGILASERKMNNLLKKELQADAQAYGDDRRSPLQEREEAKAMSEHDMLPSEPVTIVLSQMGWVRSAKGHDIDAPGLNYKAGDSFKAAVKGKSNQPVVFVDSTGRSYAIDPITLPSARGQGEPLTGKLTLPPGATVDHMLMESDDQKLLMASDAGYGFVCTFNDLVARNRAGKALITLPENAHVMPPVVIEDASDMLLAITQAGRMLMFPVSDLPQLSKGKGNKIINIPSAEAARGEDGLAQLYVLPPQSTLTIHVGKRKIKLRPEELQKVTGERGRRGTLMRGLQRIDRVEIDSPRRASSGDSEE
Protocol: as §4

P. aeruginosa ATCC 27853 = assay: MIC, broth microdilution; format: cell-based; settings: Pseudomonas aeruginosa, ATCC27853; P. aeruginosa ATCC 27853, ciprofloxacin-susceptible
Protocol: as §2

S. pneumoniae ATCC 49619 = assay: MIC, broth microdilution; format: cell-based; settings: Streptococcus pneumoniae, ATCC49619; S. pneumoniae ATCC 49619, ciprofloxacin-susceptible
Protocol: as §2

S. pyogenes APV00083 = assay: MIC, broth microdilution; format: cell-based; settings: Streptococcus pyogenes; S. pyogenes APV00083, ciprofloxacin-susceptible
Protocol: as §2

E. coli ATCC 25922 = assay: MIC, broth microdilution; format: cell-based; settings: Escherichia coli, ATCC25922; E. coli ATCC 25922, ciprofloxacin-susceptible
Protocol: as §2

E. faecalis ATCC 29212 = assay: MIC, broth microdilution; format: cell-based; settings: Enterococcus faecalis, ATCC29212; E. faecalis ATCC 29212, ciprofloxacin-susceptible
Protocol: as §2

H. influenzae ATCC 49766 = assay: MIC, broth microdilution; format: cell-based; settings: Haemophilus influenzae, ATCC49766; H. influenzae ATCC 49766, ciprofloxacin-susceptible
Protocol: as §2

[5] = tested on: K. pneumoniae ATCC 700603; assay: MIC, broth microdilution; format: cell-based; settings: Klebsiella pneumoniae, ATCC700603; K. pneumoniae ATCC 700603, ciprofloxacin-susceptible
Protocol: as §2

S. aureus BAA-1720 = assay: MIC, broth microdilution; format: cell-based; settings: Staphylococcus aureus, BAA1720; S. aureus BAA-1720, ciprofloxacin-resistant
Protocol: as §2

Human Topoisomerase II = molecular target: T4, Human Topoisomerase II (Homo sapiens, UniProt P11388); assay: Human topoisomerase II decatenation gel assay; format: biochemical
T4 construct: purchased Inspiralis (Norwich, UK)
T4 sequence (P11388 whole entry): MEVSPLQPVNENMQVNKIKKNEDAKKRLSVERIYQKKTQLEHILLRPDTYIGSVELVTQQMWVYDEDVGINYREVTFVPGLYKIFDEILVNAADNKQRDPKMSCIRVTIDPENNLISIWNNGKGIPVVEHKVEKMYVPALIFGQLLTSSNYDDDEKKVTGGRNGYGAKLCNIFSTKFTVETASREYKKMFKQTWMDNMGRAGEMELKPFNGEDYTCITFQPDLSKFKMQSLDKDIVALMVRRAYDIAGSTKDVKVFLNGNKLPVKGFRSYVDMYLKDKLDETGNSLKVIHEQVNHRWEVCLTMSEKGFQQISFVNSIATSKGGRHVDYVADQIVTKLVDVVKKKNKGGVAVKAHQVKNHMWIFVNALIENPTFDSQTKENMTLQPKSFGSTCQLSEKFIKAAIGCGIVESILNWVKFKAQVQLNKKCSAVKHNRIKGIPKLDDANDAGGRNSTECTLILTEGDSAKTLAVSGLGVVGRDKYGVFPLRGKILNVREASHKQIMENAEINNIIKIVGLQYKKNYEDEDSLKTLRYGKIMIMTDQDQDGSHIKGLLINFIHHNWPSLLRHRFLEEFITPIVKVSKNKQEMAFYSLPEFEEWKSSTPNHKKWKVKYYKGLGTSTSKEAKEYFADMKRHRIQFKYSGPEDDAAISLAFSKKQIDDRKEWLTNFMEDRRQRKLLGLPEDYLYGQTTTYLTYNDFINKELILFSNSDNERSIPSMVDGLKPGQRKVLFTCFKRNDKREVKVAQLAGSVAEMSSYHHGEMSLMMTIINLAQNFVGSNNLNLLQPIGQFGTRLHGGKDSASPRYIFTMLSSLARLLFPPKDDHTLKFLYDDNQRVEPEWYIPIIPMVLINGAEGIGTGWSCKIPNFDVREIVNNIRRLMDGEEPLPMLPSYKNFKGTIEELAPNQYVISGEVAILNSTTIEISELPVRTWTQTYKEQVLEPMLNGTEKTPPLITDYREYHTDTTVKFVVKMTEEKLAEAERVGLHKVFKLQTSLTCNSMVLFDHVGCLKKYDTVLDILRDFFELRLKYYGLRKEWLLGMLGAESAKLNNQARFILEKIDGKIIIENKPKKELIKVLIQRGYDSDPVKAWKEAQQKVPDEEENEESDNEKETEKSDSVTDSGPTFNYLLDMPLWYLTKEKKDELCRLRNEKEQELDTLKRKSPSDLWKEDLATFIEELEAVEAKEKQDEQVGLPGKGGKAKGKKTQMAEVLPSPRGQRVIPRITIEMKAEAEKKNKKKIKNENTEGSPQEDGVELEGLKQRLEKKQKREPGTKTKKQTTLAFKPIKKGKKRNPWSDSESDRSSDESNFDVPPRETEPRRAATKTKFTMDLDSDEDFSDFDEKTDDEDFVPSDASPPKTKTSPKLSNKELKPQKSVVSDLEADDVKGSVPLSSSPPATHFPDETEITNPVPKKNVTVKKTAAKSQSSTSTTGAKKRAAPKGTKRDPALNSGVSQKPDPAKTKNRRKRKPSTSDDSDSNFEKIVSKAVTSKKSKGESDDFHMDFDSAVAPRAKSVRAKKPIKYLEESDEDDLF
Protocol: as §4

S. aureus ATCC 29213 = assay: MIC, broth microdilution; format: cell-based, Staphylococcus aureus; settings: Staphylococcus aureus, ATCC29213, S. aureus ATCC 29213, ciprofloxacin-susceptible
Protocol: as §2

S. aureus DNA gyrase = molecular target: T5, S. aureus DNA gyrase (Staphylococcus aureus, UniProt P20831); assay: S. aureus DNA gyrase supercoiling gel assay; format: biochemical
T5 construct: purchased Inspiralis (Norwich, UK)
Protocol: as §4

[6] = tested on: E. faecium clinical isolates (n = 12) vanA (6)/vanB (6); assay: MIC, multidrug-resistant clinical isolates; format: cell-based; settings: Enterococcus faecium
Protocol: as §1, §2, §3

[7] = tested on: E. faecalis clinical isolates (n = 12) vanA (6)/vanB (6); assay: MIC, multidrug-resistant clinical isolates; format: cell-based; settings: Enterococcus faecalis
Protocol: as §1, §2, §3

Q: For `COc1cnc2ncc(=O)n([C@H]3CC[C@H](NCc4cc5c(=O)oc6ccc(F)cc6c5[nH]4)CC3)c2c1` [Compound 5, 8-Fluoro-2-({[trans-4-(7-methoxy-2-oxopyrido[2,3-b]pyrazin-1(2H)-yl)cyclohexyl]amino}methyl)[1]benzopyrano[4,3-b]pyrrol-4(1H)-one hydrochloride], which MIC range [1] is on record?
A: Its MIC range is 0.016 to 0.25 µg/mL.

Q: And the MIC50 ([1]; Neisseria gonorrhoeae)?
A: The MIC50 was 0.12 µg/mL.

Q: And the MIC90 ([1]; Neisseria gonorrhoeae)?
A: The MIC90 was 0.25 µg/mL.

Q: What about the IC50 ([2]; average of two replicate experiments, read-out: IC50 S. aureus Topoisomerase IV decatenation (average)) of the same molecule?
A: The IC50 was 70 nM.

Q: What about the IC50 ([2]; replicate Assay 1, read-out: IC50 S. aureus Topoisomerase IV decatenation, Assay 1) of the same molecule?
A: Its IC50 is 80 nM.

Q: And the IC50 ([2]; replicate Assay 2, read-out: IC50 S. aureus Topoisomerase IV decatenation, Assay 2)?
A: The IC50 was 60 nM.

Q: And the MIC (E. coli TolC- mutant)?
A: The MIC was ≤ 0.016 µg/mL.

Q: What about the IC50 (E. coli DNA gyrase; average of two replicate experiments, read-out: IC50 E. coli Gyrase Supercoiling (average)) of the same molecule?
A: Its IC50 is 100 nM.

Q: And the IC50 (E. coli DNA gyrase; replicate Assay 1, read-out: IC50 E. coli gyrase Supercoiling, Assay 1)?
A: Its IC50 is 90 nM.

Q: What about the IC50 (E. coli DNA gyrase; replicate Assay 2, read-out: IC50 E. coli gyrase Supercoiling, Assay 2) of the same molecule?
A: The IC50 was 100 nM.

Q: And the MIC (N. gonorrhoeae WHO N)?
A: The MIC was 0.12 µg/mL.

Q: What about the MIC [3] of the same molecule?
A: Its MIC is ≤ 0.06 µg/mL.

Q: And the MIC (N. gonorrhoeae WHO K)?
A: Its MIC is 0.25 µg/mL.

Q: What about the MIC [4] of the same molecule?
A: The MIC was 0.125 µg/mL.

Q: What about the MIC (N. gonorrhoeae WHO L) of the same molecule?
A: The MIC was 0.25 µg/mL.

Q: And the IC50 (E. coli Topoisomerase IV; average of two replicate experiments, read-out: IC50 E. coli Topoisomerase IV decatenation (average))?
A: The IC50 was 140 nM.

Q: What about the IC50 (E. coli Topoisomerase IV; replicate Assay 1, read-out: IC50 E. coli Topoisomerase IV decatenation, Assay 1) of the same molecule?
A: The IC50 was 120 nM.

Q: What about the IC50 (E. coli Topoisomerase IV; replicate Assay 2, read-out: IC50 E. coli Topoisomerase IV decatenation, Assay 2) of the same molecule?
A: Its IC50 is 160 nM.

Q: What about the MIC (P. aeruginosa ATCC 27853) of the same molecule?
A: Its MIC is 4 µg/mL.

Q: And the MIC (S. pneumoniae ATCC 49619)?
A: Its MIC is 0.5 µg/mL.

Q: What about the MIC (S. pyogenes APV00083) of the same molecule?
A: Its MIC is ≤ 0.06 µg/mL.

Q: What about the MIC (E. coli ATCC 25922) of the same molecule?
A: The MIC was 0.5 µg/mL.

Q: And the MIC (E. faecalis ATCC 29212)?
A: Its MIC is 0.25 µg/mL.

Q: What about the MIC (H. influenzae ATCC 49766) of the same molecule?
A: Its MIC is 0.12 µg/mL.

Q: And the MIC [5]?
A: Its MIC is 8 µg/mL.

Q: And the MIC (S. aureus BAA-1720)?
A: The MIC was 1 µg/mL.

Q: What about the IC50 (Human Topoisomerase II; average of two replicate experiments, read-out: IC50 Human Topoisomerase II decatenation (average)) of the same molecule?
A: The IC50 was 9120 nM and 9000 nM.

Q: What about the IC50 (Human Topoisomerase II; replicate Assay 1, read-out: IC50 Human Topoisomerase II (TopoII) decatenation, Assay 1) of the same molecule?
A: Its IC50 is 5450 nM.

Q: What about the IC50 (Human Topoisomerase II; replicate Assay 2, read-out: IC50 Human Topoisomerase II (TopoII) decatenation, Assay 2) of the same molecule?
A: Its IC50 is 12800 nM.

Q: And the MIC (S. aureus ATCC 29213)?
A: Its MIC is 0.5 µg/mL.

Q: And the IC50 (S. aureus DNA gyrase; average of two replicate experiments, read-out: IC50 S. aureus Gyrase Supercoiling (average))?
A: Its IC50 is 170 nM.

Q: What about the IC50 (S. aureus DNA gyrase; replicate Assay 1, read-out: IC50 S.aureus gyrase Supercoiling, Assay 1) of the same molecule?
A: The IC50 was 160 nM.

Q: And the IC50 (S. aureus DNA gyrase; replicate Assay 2, read-out: IC50 S.aureus gyrase Supercoiling, Assay 2)?
A: The IC50 was 170 nM.

Q: What about the MIC50 [6] of the same molecule?
A: The MIC50 was 1 µg/mL.

Q: What about the MIC90 [6] of the same molecule?
A: The MIC90 was 4 µg/mL.

Q: And the MIC ([6]; read-out: MIC range)?
A: Its MIC is 0.25 to 8 µg/mL.

Q: And the MIC50 [7]?
A: The MIC50 was 0.5 µg/mL.

Q: And the MIC90 [7]?
A: Its MIC90 is 2 µg/mL.

Q: And the MIC ([7]; read-out: MIC range)?
A: The MIC was 0.25 to 4 µg/mL.
